Key:
[1] = test system: mouse macrophage RAW264.7 cells; experiment: Cell death of subconfluent RAW264.7 cells (cell count); type: cell-based; conditions: for death in RAW264.7 cells: DHMBA 1, 10, 100 or 1000 μM, subconfluent cells
Method: FIG. 4 is an explanatory diagram describing that the marine factor 3,5-dihydroxy-4-methoxy benzyl alcohol (DHMBA) stimulates cell death in mouse macrophage RAW264.7 cells. RAW264.7 cells (1×10^5 cells/ml/well in a 24-well plate) were cultured in DMEM containing 10% FBS, 1% P/S, and 1% fungizone for 3 days until they reached subconfluence. The cells were cultured for another 24 hours (FIG. 4A) or 48 hours (FIG. 4B) in the control group (1% ethanol; 0 μM DHMBA as final concentration) and in the DHMBA-treated group (0.1, 1, 10, 100, or 1000 μM). In FIG. 4C, subconfluent RAW264.7 cells were cultured for another 48 hours with a caspase-3 inhibitor (10 μM) in the control group (1% ethanol; 0 μM DHMBA as final concentration) and the DHMBA-treated group (1 or 10 μM). After the culture, the number of cells attached to the dish was counted. Data are presented as the mean±SD from a total of 8 wells in 2 plates using different cell preparations. In FIG. 4D, to measure the expression level of caspase-3 or cleaved caspase-3, […] (1×10^6 cells/10 ml medium in a 100 mm dish) were cultured for 3 days in a DMEM culture medium in the control group (1% ethanol; 0 μM DHMBA as final concentration) and the DHMBA-treated group (10 μM). After the culture, cell lysates were obtained for Western blotting assay. In FIG. 4E, band intensities are shown as fold increase over the control. Data are presented as the mean±SD of values obtained from 4 dishes using different cell preparations. *: Significant difference (p<0.001) between the control group and the DHMBA-treated group. Statistical analysis was performed using 1-way ANOVA with Tukey-Kramer post-test.
RAW264.7 cells (1×10^5/ml/well in a 24-well plate) were cultured for 3 days in a DMEM culture medium containing 10% FBS, 1% P/S, and 1% fungizone using a 24-well plate. […]
The number of viable cells was counted under a microscope (Olympus MTV-3) using a hemocytometer (Sigma-Aldrich) and a cell counter (H-102P, Line Seiki Co., Ltd., Tokyo, Japan).

[2] = test system: mouse macrophage RAW264.7 cells; experiment: Cell number after 5 hours incubation with or without LPS; type: cell-based; conditions: DHMBA 0.1-1000 μM
Method: RAW264.7 cells (1×10^5/ml/well) were cultured in a DMEM culture medium containing 10% FBS, 1% P/S, and 1% fungizone. Cells were treated with a vehicle (1% ethanol; DHMBA 0 μM as final concentration) or DHMBA (0.1, 1, 10, 100, or 1000 μM) and incubated for 5 hours (FIG. 6A).
Cells (1×10^5/ml per well) were cultured for 3 days in a DMEM culture medium containing 10% FBS, 1% P/S, and 1% fungizone in the presence of LPS (100 ng/ml in all cultures). Cells were treated with a vehicle (1% ethanol; DHMBA 0 μM as final concentration) or DHMBA (0.1, 1, 10, 100, or 1000 μM) and incubated for 5 hours (FIG. 6B).
After the culture, the number of cells attached to the dish was counted. Data are presented as the mean±SD from a total of 8 wells of two plates using different cell preparations. […] No significant changes were observed by […] LPS treatment compared to the controls (gray bars). Statistical analysis was performed using 1-way ANOVA with Tukey-Kramer post-test.
RAW264.7 cells (1×10^5/ml per well) were cultured in a DMEM culture medium containing 10% FBS and 1% P/S using a 24-well plate for 3 days until they reached subconfluence. […] The concentrations of TNF-α, IL-6, IL-⊕, and PGE2 in the culture medium were measured using ELISA kits. […] The amount of each cytokine produced was expressed as pictograms (pg) secreted into the culture medium (ml).

COc1c(O)cc(CO)cc1O [DHMBA, 3,5-dihydroxy-4-methoxybenzyl alcohol]
death in RAW264.7 cells ([1]; 24 hours): promoted | death in RAW264.7 cells ([1]; 48 hours): promoted | stimulatory effect on death of RAW264.7 cells in presence of caspase-3 inhibitor ([1]; DHMBA 1 or 10 μM, caspase-3 inhibitor 10 μM, 48 hours): blocked | number of RAW264.7 cells ([2]; LPS 100 ng/ml): remained unchanged | number of RAW264.7 cells ([2]; absence of LPS): remained unchanged

Source: patent publication US20260041649A1, “ANTI-INFLAMMATORY AGENT” (WATANABE OYSTER LABORATORY, CO., LTD., priority 2023, published 2026)
